According to PubChem BioAssay AID2060609 (Molecular Pharmacology Branch, DTP, NCI, 2025):

Test system: 855422-203-R-J1-PDC complex spheroids, viability
Experiment: Anticancer human tumor 855422-203-R-J1-PDC patient-derived bladder carcinoma cell line growth inhibition [CLK]
Conditions: for IC50: curve of first compound; for viability, T/C: stronger effect = lower value
Outline: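 Multi-cell-type spheroids combined patient-derived tumor cells with HUVEC endothelial cells and human mesenchymal stem cells. Paired agents were dosed in half-log steps down from about clinical Cmax, or from 10 microM where Cmax was unknown.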

[1] = second compound 0.0316 µM, first compound 0.0316 µM
[2] = second compound 0.0316 µM, first compound 0.1 µM
[3] = second compound 0.1 µM, first compound 0.0316 µM
[4] = second compound 0.1 µM, first compound 0.1 µM
[5] = second compound 0.316 µM, first compound 0.0316 µM
[6] = second compound 0.316 µM, first compound 0.1 µM
[7] = second compound 1 µM, first compound 0.0316 µM
[8] = second compound 1 µM, first compound 0.1 µM
[9] = second compound 3.16 µM, first compound 0.0316 µM
[10] = second compound 3.16 µM, first compound 0.1 µM
[11] = second compound 10 µM, first compound 0.0316 µM
[12] = second compound 10 µM, first compound 0.1 µM
[13] = second compound 0.0316 µM, first compound 0.316 µM
[14] = second compound 0.0316 µM, first compound 1 µM
[15] = second compound 0.0316 µM, first compound 3.16 µM
[16] = second compound 0.0316 µM, first compound 10 µM
[17] = second compound 0.1 µM, first compound 0.316 µM
[18] = second compound 0.1 µM, first compound 1 µM
[19] = second compound 0.1 µM, first compound 3.16 µM
[20] = second compound 0.1 µM, first compound 10 µM
[21] = second compound 0.316 µM, first compound 0.316 µM
[22] = second compound 0.316 µM, first compound 1 µM
[23] = second compound 0.316 µM, first compound 3.16 µM
[24] = second compound 0.316 µM, first compound 10 µM
[25] = second compound 1 µM, first compound 0.316 µM
[26] = second compound 1 µM, first compound 1 µM
[27] = second compound 1 µM, first compound 3.16 µM
[28] = second compound 1 µM, first compound 10 µM
[29] = second compound 3.16 µM, first compound 0.316 µM
[30] = second compound 3.16 µM, first compound 1 µM
[31] = second compound 3.16 µM, first compound 3.16 µM
[32] = second compound 3.16 µM, first compound 10 µM
[33] = second compound 10 µM, first compound 0.316 µM
[34] = second compound 10 µM, first compound 1 µM
[35] = second compound 10 µM, first compound 3.16 µM
[36] = second compound 10 µM, first compound 10 µM
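Note: spheroids exposed to drugs for seven days before readout.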
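Throughout, for viability, T/C: 100% = DMSO vehicle control wells.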

`Cn1ncnc1[C@H]1c2n[nH]c(=O)c3cc(F)cc(c23)N[C@@H]1c1ccc(F)cc1` + CN1CCN(c2cc(C(=O)Nc3cc4cc(-c5cnn(C)c5)ccc4cn3)ccn2)CC1 was tested, and the IC50 (second compound 0.0316 µM) was > 100 nM, the IC50 (second compound 0.1 µM) was > 100 nM and the IC50 (second compound 0.316 µM) was < 0.316 nM. For the same compound, the IC50 (second compound 1 µM) was < 0.316 nM, the IC50 (second compound 3.16 µM) was < 0.316 nM and the IC50 (second compound 10 µM) was < 0.316 nM. It also gave a viability, T/C (second compound 0.0316 µM, first compound 0.000316 µM) of 97.4%, a viability, T/C (second compound 0.0316 µM, first compound 0.001 µM) of 101% and a viability, T/C (second compound 0.0316 µM, first compound 0.00316 µM) of 110%. It also gave a viability, T/C (second compound 0.0316 µM, first compound 0.01 µM) of 104%, a viability, T/C [1] of 113% and a viability, T/C [2] of 104%. For the same compound, the viability, T/C (second compound 0.1 µM, first compound 0.000316 µM) was 79.5%, the viability, T/C (second compound 0.1 µM, first compound 0.001 µM) was 92.6% and the viability, T/C (second compound 0.1 µM, first compound 0.00316 µM) was 103%. The viability, T/C (second compound 0.1 µM, first compound 0.01 µM) was 87.4%, the viability, T/C [3] was 95.9% and the viability, T/C [4] was 83.8%. It also gave a viability, T/C (second compound 0.316 µM, first compound 0.000316 µM) of 5.88%, a viability, T/C (second compound 0.316 µM, first compound 0.001 µM) of 9.73% and a viability, T/C (second compound 0.316 µM, first compound 0.00316 µM) of 10.4%. The viability, T/C (second compound 0.316 µM, first compound 0.01 µM) was 9.1%, the viability, T/C [5] was 9.56% and the viability, T/C [6] was 8.15%. For the same compound, the viability, T/C (second compound 1 µM, first compound 0.000316 µM) was 0.17%, the viability, T/C (second compound 1 µM, first compound 0.001 µM) was 0.23% and the viability, T/C (second compound 1 µM, first compound 0.00316 µM) was 0.15%. It also gave a viability, T/C (second compound 1 µM, first compound 0.01 µM) of 0.12%, a viability, T/C [7] of 4.07% and a viability, T/C [8] of 0.15%. The viability, T/C (second compound 3.16 µM, first compound 0.000316 µM) was 0.48%, the viability, T/C (second compound 3.16 µM, first compound 0.001 µM) was 0.5% and the viability, T/C (second compound 3.16 µM, first compound 0.00316 µM) was 0.41%. It also gave a viability, T/C (second compound 3.16 µM, first compound 0.01 µM) of 0.33%, a viability, T/C [9] of 0.23% and a viability, T/C [10] of 0.84%. The viability, T/C (second compound 10 µM, first compound 0.000316 µM) was 0.23%, the viability, T/C (second compound 10 µM, first compound 0.001 µM) was 1.99% and the viability, T/C (second compound 10 µM, first compound 0.00316 µM) was 0.17%. For the same compound, the viability, T/C (second compound 10 µM, first compound 0.01 µM) was 0.22%, the viability, T/C [11] was 0.17% and the viability, T/C [12] was 0.18%.

In the case of `Nc1ccn(C2OC(CO)C(O)C2(F)F)c(=O)n1` (stereo unspecified) + CN1CCN(c2cc(C(=O)Nc3cc4cc(-c5cnn(C)c5)ccc4cn3)ccn2)CC1, the IC50 (second compound 0.0316 µM) is reported as < 31.6 nM, the IC50 (second compound 0.1 µM) is reported as < 31.6 nM and the IC50 (second compound 0.316 µM) is reported as < 31.6 nM. For the same compound, the IC50 (second compound 1 µM) was < 31.6 nM, the IC50 (second compound 3.16 µM) was < 31.6 nM and the IC50 (second compound 10 µM) was < 31.6 nM. For the same compound, the viability, T/C [1] was 27.6%, the viability, T/C [2] was 15.1% and the viability, T/C [13] was 15.8%. The viability, T/C [14] was 11.4%, the viability, T/C [15] was 9.09% and the viability, T/C [16] was 6.12%. It also gave a viability, T/C [3] of 24.4%, a viability, T/C [4] of 15.4% and a viability, T/C [17] of 11.5%. The viability, T/C [18] was 11.9%, the viability, T/C [19] was 5.33% and the viability, T/C [20] was 4.86%. The viability, T/C [5] was 4.07%, the viability, T/C [6] was 3.72% and the viability, T/C [21] was 4.47%. The viability, T/C [22] was 2.24%, the viability, T/C [23] was 1.5% and the viability, T/C [24] was 0.93%. It also gave a viability, T/C [7] of 1.32%, a viability, T/C [8] of 0.15% and a viability, T/C [25] of 2.17%. The viability, T/C [26] was 0.1%, the viability, T/C [27] was 0.13% and the viability, T/C [28] was 0.13%. The viability, T/C [9] was 0.98%, the viability, T/C [10] was 3.09% and the viability, T/C [29] was 0.39%. It also gave a viability, T/C [30] of 0.24%, a viability, T/C [31] of 1.1% and a viability, T/C [32] of 0.29%. The viability, T/C [11] was 0.28%, the viability, T/C [12] was 0.41% and the viability, T/C [33] was 0.24%. The viability, T/C [34] was 0.83%, the viability, T/C [35] was 0.25% and the viability, T/C [36] was 0.23%.

`O=c1[nH]cc(F)c(=O)[nH]1` + CN1CCN(c2cc(C(=O)Nc3cc4cc(-c5cnn(C)c5)ccc4cn3)ccn2)CC1 was tested, and the IC50 (second compound 0.0316 µM) was 3800 nM, the IC50 (second compound 0.1 µM) was 3350 nM and the IC50 (second compound 0.316 µM) was < 31.6 nM. For the same compound, the IC50 (second compound 1 µM) was < 31.6 nM, the IC50 (second compound 3.16 µM) was < 31.6 nM and the IC50 (second compound 10 µM) was < 31.6 nM. It also gave a viability, T/C [1] of 109%, a viability, T/C [2] of 102% and a viability, T/C [13] of 96.8%. The viability, T/C [14] was 64.4%, the viability, T/C [15] was 56.9% and the viability, T/C [16] was 41.1%. For the same compound, the viability, T/C [3] was 82.2%, the viability, T/C [4] was 90.6% and the viability, T/C [17] was 85.6%. The viability, T/C [18] was 68.1%, the viability, T/C [19] was 52.4% and the viability, T/C [20] was 39.7%. For the same compound, the viability, T/C [5] was 10.1%, the viability, T/C [6] was 12.3% and the viability, T/C [21] was 9.14%. For the same compound, the viability, T/C [22] was 11.6%, the viability, T/C [23] was 14.1% and the viability, T/C [24] was 6.87%. The viability, T/C [7] was 0.14%, the viability, T/C [8] was 0.18% and the viability, T/C [25] was 0.21%. It also gave a viability, T/C [26] of 0.12%, a viability, T/C [27] of 0.19% and a viability, T/C [28] of 0.15%. For the same compound, the viability, T/C [9] was 0.72%, the viability, T/C [10] was 0.53% and the viability, T/C [29] was 0.97%. For the same compound, the viability, T/C [30] was 0.5%, the viability, T/C [31] was 1.23% and the viability, T/C [32] was 0.45%. It also gave a viability, T/C [11] of 0.21%, a viability, T/C [12] of 0.23% and a viability, T/C [33] of 0.37%. For the same compound, the viability, T/C [34] was 0.21%, the viability, T/C [35] was 0.32% and the viability, T/C [36] was 0.2%.
